Entries after “also recorded” stand apart in the source; their conditions may differ.
Columns and labels:
DRA = molecular target: T1, DRA (Homo sapiens, UniProt P40879); conditions: cited from earlier work
T1 sequence (P40879 1-764): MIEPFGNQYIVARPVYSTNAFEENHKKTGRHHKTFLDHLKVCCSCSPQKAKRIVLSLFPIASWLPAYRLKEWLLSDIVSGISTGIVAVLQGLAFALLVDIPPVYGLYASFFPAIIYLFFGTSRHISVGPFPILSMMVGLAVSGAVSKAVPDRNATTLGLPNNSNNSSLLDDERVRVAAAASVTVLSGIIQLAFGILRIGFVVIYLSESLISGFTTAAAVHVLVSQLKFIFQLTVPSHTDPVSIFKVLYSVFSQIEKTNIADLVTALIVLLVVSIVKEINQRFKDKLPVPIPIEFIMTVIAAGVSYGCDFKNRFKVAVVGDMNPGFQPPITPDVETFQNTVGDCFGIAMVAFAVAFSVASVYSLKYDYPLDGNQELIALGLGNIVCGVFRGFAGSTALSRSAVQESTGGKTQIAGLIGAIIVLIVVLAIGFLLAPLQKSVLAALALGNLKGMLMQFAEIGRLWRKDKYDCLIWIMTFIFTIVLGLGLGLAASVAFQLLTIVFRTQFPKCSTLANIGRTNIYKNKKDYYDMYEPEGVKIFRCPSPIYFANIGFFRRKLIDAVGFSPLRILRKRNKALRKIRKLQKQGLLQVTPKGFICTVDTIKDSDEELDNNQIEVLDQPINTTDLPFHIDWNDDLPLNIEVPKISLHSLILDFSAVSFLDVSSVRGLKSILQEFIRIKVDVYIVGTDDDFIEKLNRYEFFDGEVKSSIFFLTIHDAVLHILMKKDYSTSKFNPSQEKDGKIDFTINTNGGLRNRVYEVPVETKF

SAT-1 = molecular target: T2, SAT-1 (Rattus norvegicus, UniProt P45380); conditions: rat hepatocytes; cited from earlier work
T2 sequence (P45380 1-703): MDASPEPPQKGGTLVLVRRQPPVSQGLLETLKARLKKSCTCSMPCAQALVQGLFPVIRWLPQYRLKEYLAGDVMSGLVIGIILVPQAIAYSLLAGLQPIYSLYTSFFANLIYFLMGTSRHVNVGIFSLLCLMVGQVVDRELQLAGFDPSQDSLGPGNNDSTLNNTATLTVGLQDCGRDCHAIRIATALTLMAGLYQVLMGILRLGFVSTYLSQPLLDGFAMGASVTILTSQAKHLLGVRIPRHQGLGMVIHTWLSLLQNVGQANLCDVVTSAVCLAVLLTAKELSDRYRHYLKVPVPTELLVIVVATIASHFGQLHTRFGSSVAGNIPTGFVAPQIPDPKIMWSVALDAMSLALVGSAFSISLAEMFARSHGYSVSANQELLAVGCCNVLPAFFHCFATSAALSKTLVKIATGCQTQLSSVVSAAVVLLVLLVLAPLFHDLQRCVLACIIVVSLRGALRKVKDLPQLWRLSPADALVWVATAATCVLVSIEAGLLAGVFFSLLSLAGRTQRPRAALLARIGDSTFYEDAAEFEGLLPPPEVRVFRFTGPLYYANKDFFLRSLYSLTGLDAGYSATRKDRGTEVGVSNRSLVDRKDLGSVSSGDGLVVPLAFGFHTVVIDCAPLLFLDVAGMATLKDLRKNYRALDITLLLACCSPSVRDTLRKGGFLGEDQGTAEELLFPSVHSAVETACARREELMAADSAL

SUT-1 = molecular target: T3, SUT-1 (Homo sapiens, UniProt Q9UKG4); conditions: cited from earlier work
T3 sequence (Q9UKG4 1-626): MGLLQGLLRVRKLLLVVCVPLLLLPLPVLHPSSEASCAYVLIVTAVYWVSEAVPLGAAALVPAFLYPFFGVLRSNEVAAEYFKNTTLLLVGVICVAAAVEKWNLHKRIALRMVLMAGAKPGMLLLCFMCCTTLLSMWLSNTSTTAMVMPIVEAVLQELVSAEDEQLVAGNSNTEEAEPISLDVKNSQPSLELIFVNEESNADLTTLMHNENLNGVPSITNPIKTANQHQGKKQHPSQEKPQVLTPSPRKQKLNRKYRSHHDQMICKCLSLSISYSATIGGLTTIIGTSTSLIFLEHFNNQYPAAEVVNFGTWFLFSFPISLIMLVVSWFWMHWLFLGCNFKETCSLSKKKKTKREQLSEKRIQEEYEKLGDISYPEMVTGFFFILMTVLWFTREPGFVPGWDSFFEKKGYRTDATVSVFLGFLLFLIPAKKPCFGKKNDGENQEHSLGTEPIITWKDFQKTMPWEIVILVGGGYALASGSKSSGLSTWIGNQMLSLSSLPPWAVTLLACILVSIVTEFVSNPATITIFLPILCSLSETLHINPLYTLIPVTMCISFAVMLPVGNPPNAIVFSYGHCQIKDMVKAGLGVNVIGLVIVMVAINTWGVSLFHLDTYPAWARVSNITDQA

SUT-3 = molecular target: T4, SUT-3 (Homo sapiens, UniProt Q86WA9); assay: Sulfate uptake by Sf9 insect cells infected with baculovirus expressing SUT-3; type: cell-based; conditions: 1 mM DIDS; uptake of 500 μM Na2SO4; Sf9 cells infected at MOI of 5
T4 construct: The full length SLC26A11 ORF was PCR amplified from IMAGE clone; expressed in transfected cells; host or cells: Sf9 insect cells infected with recombinant baculovirus (pVL1393-SUT-3, polyhedrin promoter)
T4 sequence (Q86WA9 1-606): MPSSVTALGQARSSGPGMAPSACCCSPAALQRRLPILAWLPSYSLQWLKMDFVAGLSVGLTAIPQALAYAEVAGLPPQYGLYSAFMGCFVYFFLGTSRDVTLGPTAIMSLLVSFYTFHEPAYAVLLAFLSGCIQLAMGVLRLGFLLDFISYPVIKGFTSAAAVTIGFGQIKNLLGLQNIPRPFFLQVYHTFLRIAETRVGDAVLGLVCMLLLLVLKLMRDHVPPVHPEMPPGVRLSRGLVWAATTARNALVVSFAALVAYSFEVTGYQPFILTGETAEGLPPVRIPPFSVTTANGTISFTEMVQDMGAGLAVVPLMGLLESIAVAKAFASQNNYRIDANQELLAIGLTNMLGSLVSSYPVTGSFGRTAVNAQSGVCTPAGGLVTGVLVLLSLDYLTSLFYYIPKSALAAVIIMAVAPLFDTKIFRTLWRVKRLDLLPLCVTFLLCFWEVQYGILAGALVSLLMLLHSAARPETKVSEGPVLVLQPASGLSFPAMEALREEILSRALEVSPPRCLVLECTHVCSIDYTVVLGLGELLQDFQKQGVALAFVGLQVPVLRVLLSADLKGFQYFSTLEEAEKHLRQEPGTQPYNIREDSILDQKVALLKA
Procedure: The full length SLC26A11 ORF was PCR amplified from IMAGE clone N^o 4793646, with 10 pmol of primers ATG-SUT-3 (5′-[…]) (SEQ ID NO: 21) and STOP-SUT-3 (5′-[…]-3′)(SEQ ID NO: 22), using 3 units of Pfu (Promega) in its reaction buffer with 400 μM dNTP. PCR cycles were 30×(94° C., 1′, 60° C., 1′, 72° C., 4′). The PCR product was then phosphorylated at its 5′ extremities using 2 units of T4 Polynucleotide Kinase (PROMEGA). 2 μg of pVL1393 vector (BD Biosciences) were digested with 10 units of EcoRI and NotI endonucleases, extremities were blunt-ended with 10 units of T4 DNA polymerase (PROMEGA) and 5′ extremities were dephosphated with 1 unit of Calf Intestine Phosphatase (Boehringer). 100 ng of purified insert and vector were then ligated together using 1 unit of T4 DNA Ligase (Biolabs). All enzymes were used according to supplier's instructions. After restriction analysis, DNA sequencing was performed using the Big Dye Sequencing Kit (Perkin Elmer) according to manufacturer's protocol. […]
For all experiments, 80 cm^2 flasks containing 60% confluent Sf9 cells were infected at a MOI of 5 and incubated for 3 days at 27° C. for protein expression. […] Protein concentration was evaluated using the BIO-RAD protein Assay Kit according to the manufacturer's protocol and cell-associated radioactivity was determined in a Tri-Carb 2100 liquid scintillation counter (Packard). […]

NaSi-1 = molecular target: T5, NaSi-1 (Rattus norvegicus, UniProt Q07782); conditions: rat kidney and small intestine; cited from earlier work
T5 sequence (Q07782 1-595): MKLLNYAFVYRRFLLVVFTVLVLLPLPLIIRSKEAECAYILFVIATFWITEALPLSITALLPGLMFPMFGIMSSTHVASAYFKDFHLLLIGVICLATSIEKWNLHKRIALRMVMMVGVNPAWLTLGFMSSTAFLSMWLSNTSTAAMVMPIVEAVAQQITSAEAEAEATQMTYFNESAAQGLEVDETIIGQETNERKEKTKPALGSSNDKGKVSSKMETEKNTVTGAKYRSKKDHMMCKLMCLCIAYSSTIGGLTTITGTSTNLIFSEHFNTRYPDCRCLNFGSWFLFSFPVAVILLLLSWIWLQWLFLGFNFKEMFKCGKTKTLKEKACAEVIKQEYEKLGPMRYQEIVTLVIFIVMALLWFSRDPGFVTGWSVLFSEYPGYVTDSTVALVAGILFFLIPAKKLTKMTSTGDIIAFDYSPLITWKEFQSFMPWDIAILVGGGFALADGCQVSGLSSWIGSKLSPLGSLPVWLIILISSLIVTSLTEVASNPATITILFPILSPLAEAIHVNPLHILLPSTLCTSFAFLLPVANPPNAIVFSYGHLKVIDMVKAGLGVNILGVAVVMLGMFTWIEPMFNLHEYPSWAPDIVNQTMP

DTD = molecular target: T6, DTD (Homo sapiens, UniProt P50443); conditions: cited from earlier work
T6 sequence (P50443 1-739): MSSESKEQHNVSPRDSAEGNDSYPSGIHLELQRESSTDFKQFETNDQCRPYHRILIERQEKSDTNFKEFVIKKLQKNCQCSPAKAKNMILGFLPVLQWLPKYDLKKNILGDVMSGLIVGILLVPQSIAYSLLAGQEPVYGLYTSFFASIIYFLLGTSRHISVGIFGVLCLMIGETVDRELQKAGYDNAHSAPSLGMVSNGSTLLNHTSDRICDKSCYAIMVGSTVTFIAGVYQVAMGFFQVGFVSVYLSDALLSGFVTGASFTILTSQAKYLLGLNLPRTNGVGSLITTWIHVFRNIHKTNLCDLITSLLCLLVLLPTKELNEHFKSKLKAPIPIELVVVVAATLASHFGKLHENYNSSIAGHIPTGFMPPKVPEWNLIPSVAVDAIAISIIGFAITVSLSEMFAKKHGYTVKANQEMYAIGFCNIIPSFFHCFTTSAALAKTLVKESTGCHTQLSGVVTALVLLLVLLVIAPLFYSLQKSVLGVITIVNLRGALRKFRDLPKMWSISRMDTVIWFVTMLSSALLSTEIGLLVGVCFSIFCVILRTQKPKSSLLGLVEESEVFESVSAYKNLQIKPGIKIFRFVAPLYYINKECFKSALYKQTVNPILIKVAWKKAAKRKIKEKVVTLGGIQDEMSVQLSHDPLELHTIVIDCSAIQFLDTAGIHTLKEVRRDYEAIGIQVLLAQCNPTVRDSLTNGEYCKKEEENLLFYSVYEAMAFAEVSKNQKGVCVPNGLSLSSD

selectins = conditions: cited from earlier work

| SMILES | sensitivity of DRA to DIDS (DRA) | sensitivity of SAT-1 sulfate transport to DIDS (SAT-1) | sensitivity of SUT-1 sulfate transport to DIDS (SUT-1) | inhibition of SUT-3-mediated sulfate uptake (SUT-3) | sensitivity of NaSi-1 sulfate transport to DIDS (NaSi-1) | sensitivity of DTD to DIDS (DTD) | endothelial expression of selectins (selectins) |
| --- | --- | --- | --- | --- | --- | --- | --- |
| O=S(=O)(O)c1cc(N=C=S)ccc1C=Cc1ccc(N=C=S)cc1S(=O)(=O)O [DIDS, 4,4′-diisothiocyanostilbene-2,2′-disulfonic acid] | sensitive | sensitive | resistant | sensitive; also recorded: efficiently inhibited | resistant | sensitive | – |
| COc1cc2c(c(OC)c1OC)-c1ccc(OC)c(=O)cc1[C@@H](NC(C)=O)CC2 [colchicine] | – | – | – | – | – | – | downregulate |

From patent US20030086872A1, “SUT-2 and SUT-3 genes, proteins and assays for inhibitors of lymphocyte adhesion” (priority 2001, published 2003)
